What was measured:
glucose levels [1] = test: Confirmation study: glucose levels in rats, additional doses; type: in vivo; details: subQ, 5 IU/kg
From the text: (§1) The present Example describes a) selection of the dosage presentation for the lead ion-pair and the dose (see TABLE 8, FIGS. 4 and 14A-14D) and b) validation of the lead ion-pair formulation in their ability to lower glucose levels upon oral administration of the formulations (see FIGS. 15A-15D). In part a) of the present Example, we compared the capsule and FDT presentation formats for both ion-pair formulations. We also included β-CD-encapsulated ion-pair complex to see whether the encapsulation of ion-pair within β-CD offers further improvement in absorption of insulin. Liquid insulin given subcutaneously (subQ) was used a comparator in both studies.

[2] = Static gastrointestinal use testing (GUT) model, gastric fluid; details: 30 minutes at 37° C.
From the text: The purpose of this evaluation was to test whether the bile-insulin ion-pair encapsulated within the resistant starch polymer is protected from pH and enzymatic degradation encountered in the gastrointestinal compartments. Since the in vivo feasibility of insulin FDTs is proposed in a diabetic rodent model, we scaled down the size of the FDTs based on limited size of the oral cavity in rats. We also included commercially available gelatin oral capsules fit for oral delivery to rats (FIGS. 12A and 12B). Biorelevant dissolution media simulating the pH and enzymatic conditions in the different sections of gastrointestinal tract, such as fasted state simulated gastric fluid (FASSFG), and intestinal fluid in the duodenum and jejunum (TABLE 7) were generated following the composition recipe reported by Jantratid et al. (2009).
Samples were incubated in the different fluid media maintained at 37° C. and at the 30-minute time point, removed and tested for insulin content. Unformulated insulin was used as a control for comparative evaluation (FIGS. 13A and 13B).

blood glucose levels = test: Glucose lowering in STZ diabetic rodent model; type: in vivo, Sprague Dawley rodents; details: SC
Method: Briefly, the male Sprague Dawley rodents (200-250 grams) are fasted 4 hours before given 65 mg/kg intraperitoneal (IP) streptozotocin (STZ) to induce diabetes and randomized into treatment groups based on the post-STZ (˜1 week) baseline glucose levels (see TABLE 10). Only rodents with hyperglycemia (glycose levels […]) are used in the study. Rodents are housed on a 12-hour light/dark cycle with no more than 2 rats per cage depending on size and acclimatized for not less than 5 days. Blood glucose levels are measured using calibrated Glucocard Vital glycometers (Arkray, Minneapolis, Minn.) and levels are reported as mg/dL. For each timepoint, blood (<5 uL) is acquired from a tail snip and directly applied to a glucose test strip. Data for each quantitative timepoint is presented as the average+/−SEM (standard error of the mean). Differences between vehicle control and each treatment groups are determined by Student's t-test using GraphPad Prism (current version) with an alpha threshold of 0.05.
Insulin and blood glucose levels were measured before administration, at 30 minutes, 60 minutes, 90 minutes, 2 hours, 4 hours, 8 hours, and 24 hours after dosing.

glucose levels [3] = test: Pilot study: glucose levels in rats after oral ion-pair formulations or subQ insulin; type: in vivo; details: subQ, 5 IU/kg
From the text: as §1

Substance: insulin
- drop in glucose levels (glucose levels [1]; T=1 hour): ~80%
- glucose level (glucose levels [1]; T=1 hour (from 600 mg/dL)): ~100 mg/dL
- degradation in the presence of gastric fluid [2]: degraded almost completely
- time after administration within which glucose levels rise (blood glucose levels): ≤ 4 h
- glucose lowering effect (blood glucose levels; compared to diabetic rodent levels): > 60%
- glucose levels (glucose levels [3]; late time point (T=8 hours), similar to T=0): 600 mg/dL
- glucose level (glucose levels [3]; within the first hour (from 600 mg/dL)): 100 mg/dL
- lowering of glucose levels (glucose levels [3]; within the first hour of administration): about 80%

Reference: patent publication US20230190660A1, “ENCAPSULATED PHARMACEUTICAL COMPOSITIONS, RELATED METHODS OF MAKING, AND RELATED METHODS OF TREATMENT” (PATH, priority 2021, published 2023)
